Converted amounts (≈) assume the structure as drawn.
Key:
Assay type in all cases: cell-based
Staph. 9TV = assay: MIC values, Staph. 9TV; settings: 37° C., about 20 hours
Method: (§1) The minimum inhibitory concentrations (MIC) were determined by the series dilution method on Iso-Sensitest agar (Oxoid). A series of agar plates which contained concentrations of the active compound which decreased by two-fold dilution in each case were prepared for each test substance. The agar plates were inoculated with a Multipoint inoculator (Denley). Overnight cultures of the pathogens which had been diluted beforehand such that each inoculation point contained about 10^4 colony-forming particles were used for the inoculation. The inoculated agar plates were incubated at 37° C. and the germ growth was read off after about 20 hours. The MIC value (μg/ml) indicates the lowest concentration of active compound at which no growth was detectable with the naked eye.
(§2) The MIC values were determined with the aid of the microdilution method in BH medium. Each test substance was dissolved in the nutrient medium. A concentration series of the test substances was prepared in the microtiter plate by serial dilution. Overnight cultures of the pathogens which were diluted 1:250 beforehand in the nutrient medium were used for the inoculation. In each case 100 μl of inoculation solution were added to 100 μl of the diluted nutrient solutions containing the active compound.

Staph. 48N = assay: MIC values, Staph. 48N; settings: 37° C., about 20 hours
Method: as §1, §2

Staph 25701 = assay: MIC values, Staph 25701; settings: 37° C., about 20 hours
Method: as §1, §2

E. coli Neumann = assay: MIC values, E. coli Neumann; settings: Escherichia coli, 37° C., about 20 hours
Method: as §1, §2

Klebs. 57 USA = assay: MIC values, Klebs. 57 USA; settings: 37° C., about 20 hours
Method: as §1, §2

Staph. 133 = assay: MIC values, Staph. 133; settings: 37° C., about 20 hours
Method: as §1, §2

Psdm. Bonn = assay: MIC values, Psdm. Bonn; settings: 37° C., about 20 hours
Method: as §1, §2

Structure (SMILES)	MIC (Staph. 9TV)	MIC (Staph. 48N)	MIC (Staph 25701)	MIC (E. coli Neumann)	MIC (Klebs. 57 USA)	MIC (Staph. 133)	MIC (Psdm. Bonn)
CC(=O)NC[C@H]1CN(c2ccc3ncccc3c2)C(=O)O1 [Example 29]	8 µg/mL (≈ 28 µM)	8 µg/mL (≈ 28 µM)	8 µg/mL (≈ 28 µM)	> 64 µg/mL	> 64 µg/mL	8 µg/mL (≈ 28 µM)	–
CC(=O)NC[C@H]1CN(c2ccc(-c3ccc(C)cc3)cn2)C(=O)O1 [Example 36, (5S)-3-[5-(4-Methylphenyl)pyridin-2-yl]-5-acetyl-aminomethyl-oxazolidin-2-one]	1 µg/mL (≈ 3.07 µM)	4 µg/mL (≈ 12.3 µM)	4 µg/mL (≈ 12.3 µM)	> 32 µg/mL	> 32 µg/mL	4 µg/mL (≈ 12.3 µM)	> 32 µg/mL
CC(=O)NC[C@H]1CN(c2ccc(-c3ccccc3)cn2)C(=O)O1 [Example 37]	0.5 µg/mL (≈ 1.61 µM)	1 µg/mL (≈ 3.21 µM)	1 µg/mL (≈ 3.21 µM)	> 32 µg/mL	> 32 µg/mL	1 µg/mL (≈ 3.21 µM)	> 32 µg/mL
CC(=O)NC[C@H]1CN(c2ccc(-c3ccccc3C=O)cn2)C(=O)O1 [Example 38]	2 µg/mL (≈ 5.89 µM)	4 µg/mL (≈ 11.8 µM)	8 µg/mL (≈ 23.6 µM)	> 32 µg/mL	> 32 µg/mL	4 µg/mL (≈ 11.8 µM)	> 32 µg/mL
CC(=O)NC[C@H]1CN(c2ccc(-c3cccc(C=O)c3)cn2)C(=O)O1 [Example 39]	0.125 µg/mL (≈ 0.368 µM)	0.5 µg/mL (≈ 1.47 µM)	0.5 µg/mL (≈ 1.47 µM)	> 32 µg/mL	> 32 µg/mL	0.25 µg/mL (≈ 0.737 µM)	> 32 µg/mL
CC(=O)NC[C@H]1CN(c2ccc(-c3ccc(C=O)cc3)cn2)C(=O)O1 [Example 40]	0.5 µg/mL (≈ 1.47 µM)	1 µg/mL (≈ 2.95 µM)	1 µg/mL (≈ 2.95 µM)	> 32 µg/mL	> 32 µg/mL	1 µg/mL (≈ 2.95 µM)	> 32 µg/mL
CC(=O)NC[C@H]1CN(c2ccc(-c3ccc(C(C)=O)cc3)cn2)C(=O)O1 [Example 41]	1 µg/mL (≈ 2.83 µM)	4 µg/mL (≈ 11.3 µM)	4 µg/mL (≈ 11.3 µM)	> 32 µg/mL	> 32 µg/mL	2 µg/mL (≈ 5.66 µM)	> 32 µg/mL
CC(=O)NC[C@H]1CN(c2ccc(-c3cccc(C(C)=O)c3)cn2)C(=O)O1 [Example 42]	4 µg/mL (≈ 11.3 µM)	4 µg/mL (≈ 11.3 µM)	4 µg/mL (≈ 11.3 µM)	> 64 µg/mL	> 64 µg/mL	4 µg/mL (≈ 11.3 µM)	–
CC(=O)NC[C@H]1CN(c2ccc(-c3ccc(C(C)=O)s3)cn2)C(=O)O1 [Example 43]	0.25 µg/mL (≈ 0.696 µM)	0.5 µg/mL (≈ 1.39 µM)	0.5 µg/mL (≈ 1.39 µM)	> 32 µg/mL	> 32 µg/mL	0.25 µg/mL (≈ 0.696 µM)	> 32 µg/mL
CC(=O)NC[C@H]1CN(c2ccc(-c3csc(C=O)c3)cn2)C(=O)O1 [Example 44]	2 µg/mL (≈ 5.79 µM)	4 µg/mL (≈ 11.6 µM)	2 µg/mL (≈ 5.79 µM)	> 32 µg/mL	> 32 µg/mL	2 µg/mL (≈ 5.79 µM)	> 32 µg/mL
CC(=O)NC[C@H]1CN(c2ccc(-c3ccc(F)c(Cl)c3)cn2)C(=O)O1 [Example 46]	2 µg/mL (≈ 5.5 µM)	2 µg/mL (≈ 5.5 µM)	4 µg/mL (≈ 11 µM)	> 64 µg/mL	> 64 µg/mL	8 µg/mL (≈ 22 µM)	> 64 µg/mL
CC(=O)NC[C@H]1CN(c2ccc(-c3ccc(F)cc3)cn2)C(=O)O1 [Example 47]	1 µg/mL (≈ 3.04 µM)	2 µg/mL (≈ 6.07 µM)	1 µg/mL (≈ 3.04 µM)	> 64 µg/mL	> 64 µg/mL	4 µg/mL (≈ 12.1 µM)	> 64 µg/mL
CC(=O)NC[C@H]1CN(c2ccc(-c3cccc([N+](=O)[O-])c3)cn2)C(=O)O1 [Example 48]	1 µg/mL (≈ 2.81 µM)	2 µg/mL (≈ 5.61 µM)	2 µg/mL (≈ 5.61 µM)	> 64 µg/mL	> 64 µg/mL	4 µg/mL (≈ 11.2 µM)	> 64 µg/mL
CC(=O)NC[C@H]1CN(c2ccc3cccc(-c4ccc(C)cc4)c3n2)C(=O)O1 [Example 59]	1 µg/mL (≈ 2.66 µM)	2 µg/mL (≈ 5.33 µM)	1 µg/mL (≈ 2.66 µM)	> 32 µg/mL	> 32 µg/mL	1 µg/mL (≈ 2.66 µM)	> 32 µg/mL
